Target: Recombinant Human Poly(ADP-Ribose) Polymerase (PARP), PARP-1 (Homo sapiens (Human), UniProt P09874)
Details: read-out: PARP-1 (Ki); Table 1; text calls the values EC50s

Sequence of Recombinant Human Poly(ADP-Ribose) Polymerase (PARP), PARP-1 (P09874 whole entry): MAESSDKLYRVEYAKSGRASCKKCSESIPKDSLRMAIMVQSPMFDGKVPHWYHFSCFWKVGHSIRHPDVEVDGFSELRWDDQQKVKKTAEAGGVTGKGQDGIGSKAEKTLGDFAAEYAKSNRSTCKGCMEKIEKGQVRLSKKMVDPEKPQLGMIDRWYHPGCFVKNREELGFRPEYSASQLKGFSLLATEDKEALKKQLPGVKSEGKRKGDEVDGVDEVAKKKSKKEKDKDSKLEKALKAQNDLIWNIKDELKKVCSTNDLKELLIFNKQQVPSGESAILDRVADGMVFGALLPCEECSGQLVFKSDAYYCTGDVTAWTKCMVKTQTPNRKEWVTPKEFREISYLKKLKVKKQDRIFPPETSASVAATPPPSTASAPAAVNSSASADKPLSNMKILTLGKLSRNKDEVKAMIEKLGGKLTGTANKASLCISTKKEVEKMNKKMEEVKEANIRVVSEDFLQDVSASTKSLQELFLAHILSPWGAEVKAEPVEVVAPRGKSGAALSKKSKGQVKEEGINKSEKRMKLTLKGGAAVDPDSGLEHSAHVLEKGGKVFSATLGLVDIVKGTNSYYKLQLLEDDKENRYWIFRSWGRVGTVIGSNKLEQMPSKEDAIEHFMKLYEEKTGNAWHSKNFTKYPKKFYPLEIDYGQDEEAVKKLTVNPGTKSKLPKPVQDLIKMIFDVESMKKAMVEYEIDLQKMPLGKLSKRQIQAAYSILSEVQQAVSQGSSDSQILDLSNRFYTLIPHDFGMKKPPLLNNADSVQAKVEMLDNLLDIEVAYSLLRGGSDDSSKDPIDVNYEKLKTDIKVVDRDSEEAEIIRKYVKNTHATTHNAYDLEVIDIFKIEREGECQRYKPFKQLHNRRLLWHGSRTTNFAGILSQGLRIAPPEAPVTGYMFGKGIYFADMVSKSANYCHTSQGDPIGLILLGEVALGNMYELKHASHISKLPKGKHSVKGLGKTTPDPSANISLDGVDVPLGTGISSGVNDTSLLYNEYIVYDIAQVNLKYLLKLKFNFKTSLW

Row | Ki [nM] | SMILES
1 | 5 | CN(C(=O)c1cc(Cc2n[nH]c(=O)c3c2NCCC3)ccc1F)C1CCNCC1 [Example 706, 2-fluoro-N-methyl-5-[(5-oxo-1,2,3,4,5,6-hexahydropyrido[2,3-d]pyridazin-8-yl)methyl]-N-piperidin-4-ylbenzamide]
2 | 74 | CC(C)(C)OC(=O)N1CCC(NC(=O)c2cc(Cc3n[nH]c(=O)c4c3NCCC4)ccc2F)CC1 [Example 699, tert-butyl 4-({2-fluoro-5-[(5-oxo-1,2,3,4,5,6-hexahydropyrido[2,3-d]pyridazin-8-yl)methyl]benzoyl}amino)piperidine-1-carboxylate]
3 | 68 | CSc1ccc(Cl)c(C(=O)Nc2cccc(Cc3n[nH]c(=O)c4c3CCCC4)c2)c1 [Example 237, 2-chloro-5-(methylthio)-N-(3-((4-oxo-3,4,5,6,7,8-hexahydrophthalazin-1-yl)methyl)phenyl)benzamide]
4 | 22 | O=C(NCCc1ccc2c(c1)OCO2)c1cccc(Cc2n[nH]c(=O)c3c2CCCC3)c1 [Example 407, N-(2-(1,3-benzodioxol-5-yl)ethyl)-3-((4-oxo-3,4,5,6,7,8-hexahydrophthalazin-1-yl)methyl)benzamide]
5 | 86 | O=C(Nc1cccc(Cc2n[nH]c(=O)c3c2CCCC3)c1)c1c[nH]c2ccccc12 [Example 218, N-(3-((4-oxo-3,4,5,6,7,8-hexahydrophthalazin-1-yl)methyl)phenyl)-1H-indole-3-carboxamide]
6 | 2 | CN(C)C(=O)CN1CCN(C(=O)c2cc(Cc3n[nH]c(=O)c4c3NCCC4)ccc2F)CC1 [Example 560, 2-(4-{2-fluoro-5-[(5-oxo-1,2,3,4,5,6-hexahydropyrido[2,3-d]pyridazin-8-yl)methyl]benzoyl}piperazin-1-yl)-N,N-dimethylacetamide]
7 | 1.4 | O=C(NC1CCN(C(=O)c2cc(Cc3n[nH]c(=O)c4c3NCCC4)ccc2F)CC1)c1cn[nH]c1 [Example 758, N-(1-{2-fluoro-5-[(5-oxo-1,2,3,4,5,6-hexahydropyrido[2,3-d]pyridazin-8-yl)methyl]benzoyl}piperidin-4-yl)-1H-pyrazole-4-carboxamide]
8 | 51 | O=C(NC1CCC1)c1cc(Cc2n[nH]c(=O)c3c2NCCC3)ccc1F [Example 471, N-cyclobutyl-2-fluoro-5-((5-oxo-1,2,3,4,5,6-hexahydropyrido(2,3-d)pyridazin-8-yl)methyl)benzamide]
9 | 205 | O=C(NN1CCCCCC1)c1cccc(Cc2n[nH]c(=O)c3c2CCCC3)c1 [Example 54, N-azepan-1-yl-3-((4-oxo-3,4,5,6,7,8-hexahydrophthalazin-1-yl)methyl)benzamide]
10 | 124 | O=C(Nc1ccc(-c2ccccc2)cc1)c1cccc(Cc2n[nH]c(=O)c3c2CCCC3)c1 [Example 337, N-1,1′-biphenyl-4-yl-3-((4-oxo-3,4,5,6,7,8-hexahydrophthalazin-1-yl)methyl)benzamide]
11 | 32 | O=C1NC(Cc2ccccc2)C(=O)N1c1cc(Cc2n[nH]c(=O)c3c2NCCC3)ccc1F (centres unmarked) [Example 605, 5-benzyl-3-{2-fluoro-5-[(5-oxo-1,2,3,4,5,6-hexahydropyrido[2,3-d]pyridazin-8-yl)methyl]phenyl}imidazolidine-2,4-dione]
12 | 23 | O=C(Nc1ccc2ncccc2c1)c1cccc(Cc2n[nH]c(=O)c3c2CCCC3)c1 [Example 366, 3-((4-oxo-3,4,5,6,7,8-hexahydrophthalazin-1-yl)methyl)-N-quinolin-6-ylbenzamide]
13 | 1.3 | CC(C)(C)C(=O)N1CCN(C(=O)c2cc(Cc3n[nH]c(=O)c4c3NCCC4)ccc2F)CC1 [Example 593, 8-(3-{[4-(2,2-dimethylpropanoyl)piperazin-1-yl]carbonyl}-4-fluorobenzyl)-2,3,4,6-tetrahydropyrido[2,3-d]pyridazin-5(1H)-one]
14 | 395 | Cc1noc(C)c1C(=O)Nc1cccc(Cc2n[nH]c(=O)c3c2CCCC3)c1 [Example 209, 3,5-dimethyl-N-(3-((4-oxo-3,4,5,6,7,8-hexahydrophthalazin-1-yl)methyl)phenyl)isoxazole-4-carboxamide]
15 | 156 | CCc1ccc(C(=O)Nc2cccc(Cc3n[nH]c(=O)c4c3CCCC4)c2)cc1 [Example 177, 4-ethyl-N-(3-((4-oxo-3,4,5,6,7,8-hexahydrophthalazin-1-yl)methyl)phenyl)benzamide]
16 | 2.4 | CC(C)n1nnc2cc(C(=O)N3CCCN(C(=O)c4cc(Cc5n[nH]c(=O)c6c5NCCC6)ccc4F)CC3)ccc21 [Example 690, 8-[4-fluoro-3-({4-[(1-isopropyl-1H-1,2,3-benzotriazol-5-yl)carbonyl]-1,4-diazepan-1-yl}carbonyl)benzyl]-2,3,4,6-tetrahydropyrido[2,3-d]pyridazin-5(1H)-one]
17 | 0.1 | CC(=O)N1CCN(C(=O)c2cc(Cc3n[nH]c(=O)c4c3CCCC4)ccc2F)CC1 [Example 520, 4-{3-[(4-acetylpiperazin-1-yl)carbonyl]-4-fluorobenzyl}-5,6,7,8-tetrahydrophthalazin-1(2H)-one]
18 | 94 | CSc1cccc(NC(=O)c2cccc(Cc3n[nH]c(=O)c4c3CCCC4)c2)c1 [Example 360, N-(3-(methylthio)phenyl)-3-((4-oxo-3,4,5,6,7,8-hexahydrophthalazin-1-yl)methyl)benzamide]
19 | 2.3 | C[C@@H]1CN(C(=O)c2ccccc2)CCN1C(=O)c1cc(Cc2n[nH]c(=O)c3c2NCCC3)ccc1F [Example 616, 8-(3-{[(2R)-4-benzoyl-2-methylpiperazin-1-yl]carbonyl}-4-fluorobenzyl)-2,3,4,6-tetrahydropyrido[2,3-d]pyridazin-5(1H)-one]
20 | 1 | CC1=C(C)C(=O)N(c2cc(Cc3n[nH]c(=O)c4c3CCCC4)ccc2F)C1=O [Example 290, 1-(2-fluoro-5-((4-oxo-3,4,5,6,7,8-hexahydrophthalazin-1-yl)methyl)phenyl)-3,4-dimethyl-1H-pyrrole-2,5-dione]
21 | 4 | CN(C(=O)c1cc(Cc2n[nH]c(=O)c3c2NCCC3)ccc1F)C1CCN(C(=O)c2ccco2)CC1 [Example 715, 2-fluoro-N-[1-(2-furoyl)piperidin-4-yl]-N-methyl-5-[(5-oxo-1,2,3,4,5,6-hexahydropyrido[2,3-d]pyridazin-8-yl)methyl]benzamide]
22 | 2.8 | COc1ccccc1N1CCN(C(=O)c2cc(Cc3n[nH]c(=O)c4c3NCCC4)ccc2F)CC1 [Example 631, 8-(4-fluoro-3-{[4-(2-methoxyphenyl)piperazin-1-yl]carbonyl}benzyl)-2,3,4,6-tetrahydropyrido[2,3-d]pyridazin-5(1H)-one]
23 | 6 | CN(C)CCN(C)C(=O)c1cc(Cc2n[nH]c(=O)c3c2NCCC3)ccc1F [Example 513, N-[2-(dimethylamino)ethyl]-2-fluoro-N-methyl-5-[(5-oxo-1,2,3,4,5,6-hexahydropyrido[2,3-d]pyridazin-8-yl)methyl]benzamide]
24 | 15 | CN(C)CCCN1CCCN(C(=O)c2cc(Cc3n[nH]c(=O)c4c3NCCC4)ccc2F)C1 [Example 604, 8-(3-{[3-[3-(dimethylamino)propyl]tetrahydropyrimidin-1(2H)-yl]carbonyl}-4-fluorobenzyl)-2,3,4,6-tetrahydropyrido[2,3-d]pyridazin-5(1H)-one]
25 | 82 | O=C(Nc1cccc(Cc2n[nH]c(=O)c3c2CCCC3)c1)c1cccnc1O [Example 213, 2-hydroxy-N-(3-((4-oxo-3,4,5,6,7,8-hexahydrophthalazin-1-yl)methyl)phenyl)nicotinamide]
26 | 1.2 | O=C(c1cc(Cc2n[nH]c(=O)c3c2CCCC3)ccc1F)N1CCN(c2cncnc2)CC1 [Example 757, 4-{4-fluoro-3-[(4-pyrimidin-5-ylpiperazin-1-yl)carbonyl]benzyl}-5,6,7,8-tetrahydrophthalazin-1(2H)-one]
27 | 4 | O=C(OCc1ccccc1)N1CCCN(C(=O)c2cc(Cc3n[nH]c(=O)c4c3CCCC4)ccc2F)CC1 [Example 544, benzyl 4-{2-fluoro-5-[(4-oxo-3,4,5,6,7,8-hexahydrophthalazin-1-yl)methyl]benzoyl}-1,4-diazepane-1-carboxylate]
28 | 0.8 | O=C1CCCC(=O)N1c1cc(Cc2n[nH]c(=O)c3c2CCCC3)ccc1F [Example 303, 1-(2-fluoro-5-((4-oxo-3,4,5,6,7,8-hexahydrophthalazin-1-yl)methyl)phenyl)piperidine-2,6-dione]
29 | 83 | O=C(NCCc1ccc(Oc2ccccc2)cc1)c1cccc(Cc2n[nH]c(=O)c3c2CCCC3)c1 [Example 396, 3-((4-oxo-3,4,5,6,7,8-hexahydrophthalazin-1-yl)methyl)-N-(2-(4-phenoxyphenyl)ethyl)benzamide]
30 | 44 | COc1cccc(CCNC(=O)c2cccc(Cc3n[nH]c(=O)c4c3CCCC4)c2)c1 [Example 383, N-(2-(3-methoxyphenyl)ethyl)-3-((4-oxo-3,4,5,6,7,8-hexahydrophthalazin-1-yl)methyl)benzamide]

Row | SMILES | Ki [nM]
31 | CN1CCN(CCNC(=O)c2cc(Cc3n[nH]c(=O)c4c3CCCC4)ccc2F)CC1 [Example 578, 2-fluoro-N-[2-(4-methylpiperazin-1-yl)ethyl]-5-[(4-oxo-3,4,5,6,7,8-hexahydrophthalazin-1-yl)methyl]benzamide] | 1.1
32 | O=C(c1cccc(Cc2n[nH]c(=O)c3c2CCCC3)c1)N1CCN(c2ccccc2Cl)CC1 [Example 446, 4-(3-((4-(2-chlorophenyl)piperazin-1-yl)carbonyl)benzyl)-5,6,7,8-tetrahydrophthalazin-1(2H)-one] | 10
33 | CC(=O)N1CCN(C(=O)c2cccc(Cc3n[nH]c(=O)c4c3CCCC4)c2)CC1 [Example 438, 4-(3-((4-acetylpiperazin-1-yl)carbonyl)benzyl)-5,6,7,8-tetrahydrophthalazin-1(2H)-one] | 3
34 | Cc1c(C(=O)Nc2cccc(Cc3n[nH]c(=O)c4c3CCCC4)c2)cnn1-c1ccccc1 [Example 219] | 9
35 | O=C(c1cc(Cc2n[nH]c(=O)c3c2CCCC3)ccc1F)N1CCN(c2ccc(F)cc2)CC1 [Example 528, 4-(4-fluoro-3-{[4-(4-fluorophenyl)piperazin-1-yl]carbonyl}benzyl)-5,6,7,8-tetrahydrophthalazin-1(2H)-one] | 4

From patent US9283222B2 (priority 2006, dated 2016)
